One data set has as its system model zebrafish. Put plainly: MTC determination in zebrafish hyperlipidemia model. In kind it is in vivo. On the procedure: 5 dpf melanin allele mutant translucent Albino strain zebrafish were randomly selected and put in beakers, with 30 fish per beaker (experimental group). The atorvastatin calcium and samples (see Table 2 for final concentration) were administered by dissolving in water respectively, and the normal control group and the model control group were set at the same time, and the volume of each beaker was 25 mL. Except for the normal control group, all other experimental groups were given high-fat feed in water (the high-fat feed was glucose with a final concentration of 3 wt % and egg yolk powder with a final concentration of 1.5 mg/mL) to establish a zebrafish hyperlipidemia model. The samples were co-processed with high-fat feed for 15 hours (co-processed for 7.5 hours per day and kept in fish farming water at 28° C. for the rest of the day). During sample processing, the number of dead zebrafish in each experimental group was counted every day and removed in time. After treatment at 28° C. for 48 hours, the minimum toxic concentration (MTC) of atorvastatin calcium and samples to model zebrafish was determined.

Data set [1] deals with zebrafish hyperlipidemia model. Put plainly: Efficacy evaluation of lowering triglyceride (Oil Red O staining of tail blood vessels). In kind it is in vivo. The protocol: 5 dpf melanin allele mutant translucent Albino strain zebrafish were randomly selected and put in beakers, with 30 fish per beaker. The atorvastatin calcium and samples (see Table 3 for final concentration) were administered by dissolving in water respectively, and the normal control group and the model control group were set at the same time, and the volume of each beaker was 25 mL. Except for the normal control group, all other experimental groups were given high-fat feed in water (the high-fat feed was glucose with a final concentration of 3wt % and egg yolk powder with a final concentration of 1.5 mg/mL) to establish a zebrafish hyperlipidemia model. The samples were co-processed with high-fat feed for 15 hours (co-processed for 7.5 hours per day and kept in fish farming water at 28° C. for the rest of the day). After treatment at 28° C. for 48 hours, Oil Red O was given for whole-body fat staining. After the staining, 10 zebrafish from each experimental group were randomly selected and photographed under a dissection microscope. […] The staining intensity of the zebrafish tail blood vessels was analyzed, and the efficacy of atorvastatin calcium and sample in lowering triglycerides was evaluated based on the statistical analysis results of this indicator. Statistical processing results are expressed as mean +SE. […]

The subject of data set [2] is zebrafish hyperlipidemia model. Put plainly: Efficacy evaluation of lowering cholesterol (cholesterol fluorescent probe, tail blood vessels). In kind it is in vivo. The protocol:
5 dpf melanin allele mutant translucent Albino strain zebrafish were randomly selected and put in beakers, with 30 fish per beaker. The atorvastatin calcium and samples (see Table 4 for final concentration) were administered by dissolving in water respectively, and the normal control group and the model control group were set at the same time, and the volume of each beaker was 25 mL. Except for the normal control group, all other experimental groups were given high-fat feed in water (the high-fat feed was glucose with a final concentration of 3wt % and egg yolk powder with a final concentration of 1.5 mg/mL) to establish a zebrafish hyperlipidemia model. The samples were co-processed with high-fat feed for 15 hours (co-processed for 7.5 hours per day and kept in fish farming water at 28° C. for the rest of the day). After treatment at 28° C. for 32 hours, cholesterol fluorescent probe (final concentration 1 mg/mL) was administered. After continuing the treatment for 16 hours, 10 zebrafish from each experimental group were randomly selected and photographed under a fluorescence microscope. […] The cholesterol fluorescence intensity of the zebrafish tail blood vessels was analyzed, and the efficacy lowering cholesterol of the samples was evaluated by the statistical analysis results of this index. Statistical processing results are expressed as mean±SE. […]

The test system of a further data set is hmgcra gene. Put plainly: Effect on the hmgcra gene expression levels (q-PCR). Format: in vivo, zebrafish. On the procedure:
5 dpf melanin allele mutant translucent Albino strain zebrafish were randomly selected and put in beakers, with 30 fish per beaker. The atorvastatin calcium and samples (see Table 7 for final concentration) were administered by dissolving in water respectively, and the normal control group and the model control group were set at the same time, and the volume of each beaker was 25 mL. Except for the normal control group, all other experimental groups were given high-fat feed in water (the high-fat feed was glucose with a final concentration of 3 wt % and egg yolk powder with a final concentration of 1.5 mg/mL) to establish a zebrafish hyperlipidemia model. The samples were co-processed with high-fat feed for 15 hours (co-processed for 7.5 hours per day). After treatment at 28° C. for 48 hours, total RNA of 2.00 μg zebrafish sample was taken, and 20.0 μL cDNA was synthesized according to the instructions of the cDNA first chain synthesis kit. The expression of β-actin and hmgcra genes was detected by q-PCR (see Table 6 for the sequence of primers). The RNA phase of hmgcra gene was calculated using […] as the internal reference of gene expression. Statistical processing results are expressed as mean +SE. Statistical analysis was performed with SPSS26.0 software, p<0.05 indicated a statistically significant difference.

Marks after values point to notes of the source that are not given here.

Regarding `CC(C)c1c(C(=O)Nc2ccccc2)c(-c2ccccc2)c(-c2ccc(F)cc2)n1CC[C@@H](O)C[C@@H](O)CC(=O)[O-].CC(C)c1c(C(=O)Nc2ccccc2)c(-c2ccccc2)c(-c2ccc(F)cc2)n1CC[C@@H](O)C[C@@H](O)CC(=O)[O-].[Ca+2]` [Atorvastatin calcium], in the data set on model zebrafish (11.6 μg/mL, n = 30, 48 hours), the “Death rates (%)” value came out at 0% and the “Number of deaths (fish)” value was found to be 0 fish. In the data set on model zebrafish (model zebrafish, high-fat feed, 28° C. for 48 hours), this molecule yielded an MTC of 11.6 µg/mL. The “Triglyceride content (Unit in pixels, mean ± SE)” value in data set [1] (11.6 μg/mL, 48 hours, tail blood vessels staining intensity) is given as 11104 ± 588***^c pixels. Besides, the “lowering of triglycerides compared with the model control group (in words)” value in data set [1] (P<0.05 vs model control group) is given as “significantly lower triglycerides”. Also, the “Cholesterol content (Unit in pixels, mean ± SE)” value in data set [2] (11.6 μg/mL, 48 hours, tail blood vessels cholesterol fluorescence intensity) stood at 122765 ± 11371 pixels. For the same molecule, in data set [2] (P<0.05 vs model control group), the “lowering of cholesterol compared with the model control group (in words)” value is listed as “significantly lower cholesterol”. Besides, the “Relative expression of hmgcra gene (mean ± SE)” value in the data set on hmgcra gene (11.6 μg/mL, 48 hours, β-actin internal reference, model control = 1) is listed as 0.542 ± 0.003***^a. Besides, the “reduction of hmgcra gene expression levels compared with the model control group (in words)” value in the data set with hmgcra gene (P<0.05 vs model control group) is given as “significantly reduce the hmgcra gene expression levels”.
